Test [1] concerns the target T1, Melanin-concentrating hormone receptor 1 (Homo sapiens, UniProt Q99705). Put plainly: Late-stage fluorescence-based counterscreen for antagonists of the G-protein coupled receptor 7 (GPR7): cell-based dose response assay to identify antagonists of the melanin-concentrating hormone receptor 1 (MCHR1) Set 6. It counts as functional. Background: The purpose of a counterscreen is to sort out artefacts and off-target activity.

The target in test [2] is T2, Neuropeptides B/W receptor type 1 (Homo sapiens, UniProt P48145).
T2 sequence (P48145 whole entry): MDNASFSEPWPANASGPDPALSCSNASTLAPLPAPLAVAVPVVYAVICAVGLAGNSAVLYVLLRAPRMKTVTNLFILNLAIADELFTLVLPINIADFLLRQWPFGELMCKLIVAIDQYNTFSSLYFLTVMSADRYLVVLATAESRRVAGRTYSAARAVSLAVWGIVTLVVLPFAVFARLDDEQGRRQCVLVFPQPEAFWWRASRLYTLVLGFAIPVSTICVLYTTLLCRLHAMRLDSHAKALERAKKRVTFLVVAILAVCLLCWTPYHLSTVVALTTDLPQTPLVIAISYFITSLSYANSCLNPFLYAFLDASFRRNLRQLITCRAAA
In words: human NPBW1 receptor blockade, IC50 – cell-based, fluorescence, dose response, set 6, late-stage follow-up (AID 588583). It counts as functional.

The target in test [3] is Protein kinase C theta type (Homo sapiens, UniProt Q04759). In words: Navigating the Kinome. Panel member name: PRKCQ. It counts as functional.
Test [4] has as its target Dual specificity protein kinase CLK2 (Homo sapiens, UniProt P49760). It counts as functional.
Test [5] concerns the target Serine/threonine-protein kinase PLK3 (Homo sapiens, UniProt Q9H4B4). The class given is functional.
Test [6] deals with RAC-gamma serine/threonine-protein kinase (Homo sapiens, UniProt Q9Y243). The class given is functional.
The target in test [7] is 5'-AMP-activated protein kinase catalytic subunit alpha-1 (Homo sapiens, UniProt Q13131). It counts as functional.
For test [8], the target named is Tyrosine-protein kinase receptor TYRO3 (Homo sapiens, UniProt Q06418). It counts as functional.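 Note: TYRO3 value obtained as one member of a kinome-wide profiling panel.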
Test [9] concerns the target Serine/threonine-protein kinase D3 (Homo sapiens, UniProt O94806). It counts as functional.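 Note: determined within a kinase panel screen, with PRKCN as the panel member.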
For test [10], the target named is Death-associated protein kinase 3 (Homo sapiens, UniProt O43293). It counts as functional.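 Note: measured as one member of a kinome-wide profiling panel.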
The next test deals with Activin receptor type-1 (Homo sapiens, UniProt Q04771). Put plainly: Navigating the Kinome. Panel member name: ACVR1. The class given is functional.
Test [11] addresses Mitogen-activated protein kinase 8 (Homo sapiens, UniProt P45983). The class given is functional.
The target of test [12] is Serine/threonine-protein kinase pim-1 (Homo sapiens, UniProt P11309). It counts as functional.
Another test deals with Aurora kinase A (Homo sapiens, UniProt O14965). It counts as functional.
In test [13] the target is Fibroblast growth factor receptor 1 (Homo sapiens, UniProt P11362). It counts as functional.
A further test has as its target LIM domain kinase 1 (Homo sapiens, UniProt P53667). Put plainly: Navigating the Kinome. Panel member name: LIMK1. The class given is functional.
Test [14] deals with High affinity nerve growth factor receptor (Homo sapiens, UniProt P04629). It counts as functional.
Test [15] has as its target Serine/threonine-protein kinase pim-3 (Homo sapiens, UniProt Q86V86). It counts as functional.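 Note: value obtained as one member of a broad kinase panel profiling effort.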
The target of a further test is Activated CDC42 kinase 1 (Homo sapiens, UniProt Q07912). In words: Navigating the Kinome. Panel member name: ACK1. The class given is functional.
The target in test [16] is Platelet-derived growth factor receptor beta (Homo sapiens, UniProt P09619). The class given is functional.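 Note: value comes from a kinome panel, with PDGFRB tested as one panel member.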
Test [17] has as its target Vascular endothelial growth factor receptor 2 (Homo sapiens, UniProt P35968). The class given is functional.
Test [18] concerns the target Dual specificity tyrosine-phosphorylation-regulated kinase 1B (Homo sapiens, UniProt Q9Y463). In words: Navigating the Kinome. Panel member name: DYRK1B. It counts as functional.
In test [19] the target is cAMP-dependent protein kinase catalytic subunit PRKX (Homo sapiens, UniProt P51817). It counts as functional.
Test [20] addresses Platelet-derived growth factor receptor alpha (Homo sapiens, UniProt P16234). Put plainly: Navigating the Kinome. Panel member name: PDGFRA. It counts as functional.
The target of test [21] is Leucine-rich repeat serine/threonine-protein kinase 2 (Homo sapiens, UniProt Q5S007). The class given is functional.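 Note: value from a broad kinome-wide panel profiling study in which LRRK2 was one of the kinases tested.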
Another test concerns the target Aurora kinase B (Homo sapiens, UniProt Q96GD4). The class given is functional.
Test [22] deals with RAC-alpha serine/threonine-protein kinase (Homo sapiens, UniProt P31749). The class given is functional.
Test [23] has as its target Rho-associated protein kinase 1 (Homo sapiens, UniProt Q13464). The class given is functional.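 Note: measured within a broad kinome-wide panel profiling many kinases.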
In test [24] the target is Serine/threonine-protein kinase Nek2 (Homo sapiens, UniProt P51955). It counts as functional.
In test [25] the target is Cyclin-dependent kinase 8 (Homo sapiens, UniProt P49336). Put plainly: Navigating the Kinome. Panel member name: CDK8. It counts as functional.
Test [26] addresses Cyclin-dependent kinase 7 (Homo sapiens, UniProt P50613). It counts as functional.
For test [27], the target named is Serine/threonine-protein kinase PLK1 (Homo sapiens, UniProt P53350). The class given is functional.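 Note: PLK1 measured as one member of a kinome-wide profiling panel.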
For test [28], the target named is Cyclin-dependent kinase 9 (Homo sapiens, UniProt P50750). The class given is functional.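 Note: value from the CDK9 entry of a kinome-spanning kinase panel.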
The target of test [29] is cAMP-dependent protein kinase catalytic subunit alpha (Homo sapiens, UniProt P17612). It counts as functional.
For test [30], the target named is Dual specificity protein kinase CLK4 (Homo sapiens, UniProt Q9HAZ1). The class given is functional.
Test [31] deals with Mitogen-activated protein kinase kinase kinase kinase 4 (Homo sapiens, UniProt O95819). It counts as functional.
The target in test [32] is Macrophage colony-stimulating factor 1 receptor (Homo sapiens, UniProt P07333). The class given is functional.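 Note: value comes from the Navigating the Kinome screening panel, CSF1R member.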
The target of test [33] is Dual specificity tyrosine-phosphorylation-regulated kinase 1A (Homo sapiens, UniProt Q13627). The class given is functional.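 Note: measured against DYRK1A as one member of a broad kinome profiling panel.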
Test [34] addresses Inhibitor of nuclear factor kappa-B kinase subunit epsilon (Homo sapiens, UniProt Q14164). In words: Navigating the Kinome. Panel member name: IKBKE. The class given is functional.
The target of test [35] is Calcium/calmodulin-dependent protein kinase type II subunit alpha (Homo sapiens, UniProt Q9UQM7). In words: Navigating the Kinome. Panel member name: CAMK2A. It counts as functional.
Test [36] deals with Leukocyte tyrosine kinase receptor (Homo sapiens, UniProt P29376). Put plainly: Navigating the Kinome. Panel member name: LTK. It counts as functional.
The nature of test [37]: THP-1 cell cytotoxicity, cytotoxicity control, set 5 (AID 588443). It counts as functional.
The nature of test [38]: Vero cell viability loss – purified and synthesized compounds, set 6, cytotoxicity control for M. tuberculosis inhibitor project, dose response (AID 588445). The note with it: Mycobacterium tuberculosis. The class given is functional.
The target in test [39] is T2, Neuropeptides B/W receptor type 1. In words: human NPBW1 receptor blockade, IC50 – cell-based, fluorescence, dose response, set 5, late-stage follow-up (AID 588566). The class given is functional.
Test [40] addresses T1, Melanin-concentrating hormone receptor 1. Put plainly: Late-stage fluorescence-based counterscreen for antagonists of the G-protein coupled receptor 7 (GPR7): cell-based dose response assay to identify antagonists of the melanin-concentrating hormone receptor 1 (MCHR1) Set 5. The class given is functional.
A further test has as its system HEK293. Put plainly: Fluorescence-based counterscreen for potentiators or agonists of NPY-Y2: cell-based high-throughput dose response assay to identify inhibitors of cyclic nucleotide gated ion channel (CNGC) activity. In this assay, the parental HEK293 cell line transfected with a cyclic-nucleotide gated ion channel (CNGC)-based cAMP sensor is used to measure inhibition of isoproterenol-induced CNGC activity by test compound. Conditions: Homo sapiens. The class given is functional.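 Note: stimulus is 1 µM isoproterenol at EC100 plus PDE inhibitor Ro 20-1724 at 25 µM.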

Test [41] concerns the target T3, Neuropeptide Y receptor type 2 (Homo sapiens, UniProt P49146).
T3 sequence (P49146 whole entry): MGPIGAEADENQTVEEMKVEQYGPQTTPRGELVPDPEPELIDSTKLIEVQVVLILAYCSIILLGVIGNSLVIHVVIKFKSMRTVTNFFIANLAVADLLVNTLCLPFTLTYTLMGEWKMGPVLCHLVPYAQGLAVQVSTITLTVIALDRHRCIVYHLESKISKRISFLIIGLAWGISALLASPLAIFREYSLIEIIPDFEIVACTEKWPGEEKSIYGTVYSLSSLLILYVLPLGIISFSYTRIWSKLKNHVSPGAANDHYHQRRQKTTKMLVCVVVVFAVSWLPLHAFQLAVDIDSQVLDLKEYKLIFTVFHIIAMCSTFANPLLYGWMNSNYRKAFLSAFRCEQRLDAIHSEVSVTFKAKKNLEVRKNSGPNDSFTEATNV
In words: Fluorescence-based cell-based high-throughput dose response assay for agonists of NPY-Y2. [Related pubchem assays: 1703 (Screening assay (CNGC inhibitors).), 1359 (Screening assay (NPY-Y2 potentiators or agonists).), 1304 (Screening assay (NPY-Y1 potentiators or agonists).), 1710 (Screening assay (NPY-Y2 agonists).), 1791 (Summary AID.)]. It counts as functional.

In test [42] the target is T4, Neuropeptide Y receptor type 1 (Homo sapiens, UniProt P25929).
T4 sequence (P25929 whole entry): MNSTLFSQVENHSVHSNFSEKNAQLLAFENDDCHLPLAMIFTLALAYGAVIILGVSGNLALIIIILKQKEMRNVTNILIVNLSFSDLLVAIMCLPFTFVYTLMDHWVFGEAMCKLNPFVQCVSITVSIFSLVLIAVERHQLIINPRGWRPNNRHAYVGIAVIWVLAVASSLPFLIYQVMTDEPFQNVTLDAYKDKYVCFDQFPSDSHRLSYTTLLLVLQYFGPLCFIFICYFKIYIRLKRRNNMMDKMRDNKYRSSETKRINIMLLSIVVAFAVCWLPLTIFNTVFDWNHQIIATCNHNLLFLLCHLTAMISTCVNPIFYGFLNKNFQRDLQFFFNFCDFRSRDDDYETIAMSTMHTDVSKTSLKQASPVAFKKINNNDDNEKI
Put plainly: Fluorescence-based counterscreen for agonists of NPY-Y2: cell-based high-throughput dose response assay for agonists of NPY-Y1. It counts as functional.

The next test addresses Melanocortin receptor 4 (Homo sapiens, UniProt P32245). In words: inhibitors of MC4R cAMP signaling – cell-based, TR-FRET, biased antagonists, dose response (AID 602298).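 Note: antagonist potency against agonist-stimulated cAMP production.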 The class given is functional. (In TR-FRET formats the signal depends on donor and acceptor labels being close together.)
The nature of test [43]: cAMP pathway inhibition in counterscreen cell line – TR-FRET cAMP detection, counter-screen for MC4R biased antagonist project, dose response (AID 602305).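 Note: U2OS cells stimulated with forskolin near its EC80 as the cAMP inducer; potency is for inhibition of forskolin-stimulated cAMP signaling.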 The class given is functional, cell-based.

The source made the active and inactive calls. Where only a bound is given, the exact number is not on record here.

T1 sequence (Q99705 whole entry): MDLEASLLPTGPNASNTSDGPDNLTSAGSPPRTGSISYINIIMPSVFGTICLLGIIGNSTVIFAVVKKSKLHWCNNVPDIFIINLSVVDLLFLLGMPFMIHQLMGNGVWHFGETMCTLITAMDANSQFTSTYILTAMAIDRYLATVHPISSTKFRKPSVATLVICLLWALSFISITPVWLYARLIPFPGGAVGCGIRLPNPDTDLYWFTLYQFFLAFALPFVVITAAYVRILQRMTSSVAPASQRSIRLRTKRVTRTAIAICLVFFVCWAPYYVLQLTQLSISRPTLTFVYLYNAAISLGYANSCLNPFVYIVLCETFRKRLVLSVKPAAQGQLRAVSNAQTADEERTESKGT
Sequence of Vascular endothelial growth factor receptor 2 (P35968 whole entry): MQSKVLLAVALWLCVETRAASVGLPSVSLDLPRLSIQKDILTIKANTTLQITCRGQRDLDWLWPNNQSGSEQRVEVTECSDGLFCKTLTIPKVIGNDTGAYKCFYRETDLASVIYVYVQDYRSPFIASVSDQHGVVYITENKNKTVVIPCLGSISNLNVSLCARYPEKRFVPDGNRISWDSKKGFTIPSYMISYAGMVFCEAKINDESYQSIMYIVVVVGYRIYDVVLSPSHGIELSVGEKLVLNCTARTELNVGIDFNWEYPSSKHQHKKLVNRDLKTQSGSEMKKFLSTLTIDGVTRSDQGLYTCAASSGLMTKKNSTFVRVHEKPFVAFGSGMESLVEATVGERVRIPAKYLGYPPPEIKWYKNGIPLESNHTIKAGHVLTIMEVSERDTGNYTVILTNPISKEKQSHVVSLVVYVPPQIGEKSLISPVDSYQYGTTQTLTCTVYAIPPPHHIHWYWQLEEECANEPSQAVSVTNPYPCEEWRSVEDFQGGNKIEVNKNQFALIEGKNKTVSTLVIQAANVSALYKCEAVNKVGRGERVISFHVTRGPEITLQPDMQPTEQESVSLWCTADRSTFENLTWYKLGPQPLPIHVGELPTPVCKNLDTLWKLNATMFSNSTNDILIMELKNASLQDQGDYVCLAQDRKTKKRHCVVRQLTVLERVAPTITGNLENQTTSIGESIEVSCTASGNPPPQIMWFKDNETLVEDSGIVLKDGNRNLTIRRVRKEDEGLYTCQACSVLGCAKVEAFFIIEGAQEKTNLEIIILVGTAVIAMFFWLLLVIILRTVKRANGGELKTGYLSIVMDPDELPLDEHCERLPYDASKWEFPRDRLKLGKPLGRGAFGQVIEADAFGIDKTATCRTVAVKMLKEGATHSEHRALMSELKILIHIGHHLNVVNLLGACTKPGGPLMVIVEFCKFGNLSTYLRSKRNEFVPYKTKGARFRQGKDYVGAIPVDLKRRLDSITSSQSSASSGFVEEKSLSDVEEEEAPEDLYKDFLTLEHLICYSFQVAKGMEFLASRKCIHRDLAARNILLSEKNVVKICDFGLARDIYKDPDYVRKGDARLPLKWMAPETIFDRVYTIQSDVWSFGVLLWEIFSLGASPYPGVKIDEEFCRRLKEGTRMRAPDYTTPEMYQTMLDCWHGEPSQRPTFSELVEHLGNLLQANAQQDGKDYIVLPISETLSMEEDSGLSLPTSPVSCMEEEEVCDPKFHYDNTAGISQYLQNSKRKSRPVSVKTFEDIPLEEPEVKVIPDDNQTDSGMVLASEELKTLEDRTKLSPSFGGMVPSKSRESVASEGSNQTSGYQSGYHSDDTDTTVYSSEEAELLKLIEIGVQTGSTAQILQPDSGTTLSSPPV
Sequence of Protein kinase C theta type (Q04759 whole entry): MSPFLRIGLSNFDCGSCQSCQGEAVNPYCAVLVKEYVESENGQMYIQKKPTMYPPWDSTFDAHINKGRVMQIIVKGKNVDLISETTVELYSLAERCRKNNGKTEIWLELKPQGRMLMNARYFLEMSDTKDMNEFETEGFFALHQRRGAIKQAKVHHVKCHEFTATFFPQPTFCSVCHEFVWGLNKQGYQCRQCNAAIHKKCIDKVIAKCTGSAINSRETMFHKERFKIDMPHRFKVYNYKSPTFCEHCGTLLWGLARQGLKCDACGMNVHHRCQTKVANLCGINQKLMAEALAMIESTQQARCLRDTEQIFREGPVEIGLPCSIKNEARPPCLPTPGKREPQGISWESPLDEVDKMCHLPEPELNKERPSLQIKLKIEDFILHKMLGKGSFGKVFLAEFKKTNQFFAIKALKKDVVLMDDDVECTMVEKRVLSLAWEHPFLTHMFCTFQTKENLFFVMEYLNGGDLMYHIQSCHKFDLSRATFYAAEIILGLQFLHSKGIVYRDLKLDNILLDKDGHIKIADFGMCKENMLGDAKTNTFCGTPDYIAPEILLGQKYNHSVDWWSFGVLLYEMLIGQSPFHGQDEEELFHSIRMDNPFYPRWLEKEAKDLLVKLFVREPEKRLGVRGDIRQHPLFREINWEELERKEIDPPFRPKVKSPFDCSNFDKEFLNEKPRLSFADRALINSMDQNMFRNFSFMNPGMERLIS
Sequence of High affinity nerve growth factor receptor (P04629 whole entry): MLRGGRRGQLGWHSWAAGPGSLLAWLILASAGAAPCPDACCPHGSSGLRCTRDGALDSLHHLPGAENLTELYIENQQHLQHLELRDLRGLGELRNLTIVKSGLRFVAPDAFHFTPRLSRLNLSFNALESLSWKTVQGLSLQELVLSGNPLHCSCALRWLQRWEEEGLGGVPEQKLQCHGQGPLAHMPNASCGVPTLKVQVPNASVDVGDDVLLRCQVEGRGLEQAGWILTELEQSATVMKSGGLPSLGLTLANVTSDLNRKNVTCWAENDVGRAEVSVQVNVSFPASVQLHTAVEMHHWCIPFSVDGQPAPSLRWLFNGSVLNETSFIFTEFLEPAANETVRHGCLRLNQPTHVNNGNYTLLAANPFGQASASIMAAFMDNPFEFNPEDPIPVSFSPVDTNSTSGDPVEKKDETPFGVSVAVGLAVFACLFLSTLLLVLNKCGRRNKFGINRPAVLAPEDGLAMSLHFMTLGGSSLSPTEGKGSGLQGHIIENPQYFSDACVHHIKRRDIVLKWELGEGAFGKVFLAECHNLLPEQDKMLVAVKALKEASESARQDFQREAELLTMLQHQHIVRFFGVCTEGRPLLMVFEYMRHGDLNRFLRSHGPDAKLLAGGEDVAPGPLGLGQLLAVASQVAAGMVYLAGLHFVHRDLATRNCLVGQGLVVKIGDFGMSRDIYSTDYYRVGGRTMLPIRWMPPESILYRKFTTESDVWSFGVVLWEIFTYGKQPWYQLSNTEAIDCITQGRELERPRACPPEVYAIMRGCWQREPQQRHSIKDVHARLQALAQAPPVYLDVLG
Sequence of Mitogen-activated protein kinase kinase kinase kinase 4 (O95819 whole entry): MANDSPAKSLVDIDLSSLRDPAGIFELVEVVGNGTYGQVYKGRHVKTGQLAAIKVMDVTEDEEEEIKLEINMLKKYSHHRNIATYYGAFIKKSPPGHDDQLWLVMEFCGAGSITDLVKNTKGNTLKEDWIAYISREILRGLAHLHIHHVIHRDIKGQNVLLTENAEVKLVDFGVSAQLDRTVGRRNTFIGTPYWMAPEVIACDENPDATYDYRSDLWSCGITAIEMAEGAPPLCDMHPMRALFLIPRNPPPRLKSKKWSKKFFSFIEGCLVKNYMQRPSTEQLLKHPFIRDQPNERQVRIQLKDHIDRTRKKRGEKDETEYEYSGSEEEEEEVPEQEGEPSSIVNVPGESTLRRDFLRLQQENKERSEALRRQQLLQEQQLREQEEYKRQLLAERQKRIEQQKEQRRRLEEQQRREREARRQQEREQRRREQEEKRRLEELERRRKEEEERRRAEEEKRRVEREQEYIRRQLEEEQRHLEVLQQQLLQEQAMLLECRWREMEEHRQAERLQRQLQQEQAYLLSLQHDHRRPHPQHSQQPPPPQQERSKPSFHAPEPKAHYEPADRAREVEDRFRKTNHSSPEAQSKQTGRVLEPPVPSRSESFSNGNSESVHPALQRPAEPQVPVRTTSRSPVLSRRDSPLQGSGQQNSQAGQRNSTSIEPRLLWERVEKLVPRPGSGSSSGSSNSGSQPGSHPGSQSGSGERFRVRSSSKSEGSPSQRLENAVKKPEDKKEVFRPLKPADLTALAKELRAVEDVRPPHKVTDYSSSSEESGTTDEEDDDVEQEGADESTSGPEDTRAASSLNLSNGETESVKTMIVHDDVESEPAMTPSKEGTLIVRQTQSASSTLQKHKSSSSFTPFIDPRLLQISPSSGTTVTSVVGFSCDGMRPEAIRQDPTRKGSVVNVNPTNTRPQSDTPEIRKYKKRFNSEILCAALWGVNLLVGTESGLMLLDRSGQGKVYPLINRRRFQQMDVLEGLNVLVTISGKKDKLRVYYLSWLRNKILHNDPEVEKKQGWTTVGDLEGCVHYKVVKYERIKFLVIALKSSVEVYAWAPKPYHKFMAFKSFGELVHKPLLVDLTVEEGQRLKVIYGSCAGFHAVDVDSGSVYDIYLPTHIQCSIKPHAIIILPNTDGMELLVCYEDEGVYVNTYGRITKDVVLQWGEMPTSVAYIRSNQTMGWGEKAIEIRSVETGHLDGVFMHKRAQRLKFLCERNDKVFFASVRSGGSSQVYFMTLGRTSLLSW
Sequence of cAMP-dependent protein kinase catalytic subunit PRKX (P51817 whole entry): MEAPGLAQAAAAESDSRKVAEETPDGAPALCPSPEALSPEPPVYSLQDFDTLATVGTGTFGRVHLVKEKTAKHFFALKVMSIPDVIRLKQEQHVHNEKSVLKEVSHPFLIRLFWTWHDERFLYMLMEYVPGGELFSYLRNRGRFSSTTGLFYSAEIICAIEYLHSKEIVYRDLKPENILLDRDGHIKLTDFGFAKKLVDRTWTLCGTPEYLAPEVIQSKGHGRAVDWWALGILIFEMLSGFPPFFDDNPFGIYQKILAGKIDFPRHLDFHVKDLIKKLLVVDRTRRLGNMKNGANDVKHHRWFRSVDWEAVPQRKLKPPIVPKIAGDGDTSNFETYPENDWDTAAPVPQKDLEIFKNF

As for `N#CC(c1ccc(F)cc1F)c1c(Cl)cnn(Cc2cccc3ccccc23)c1=O` (stereo not given), the IC50 in [1] and in test [2] was 0.214 µM (active) each time.

Regarding `Nc1n[nH]c2nc(Cl)sc12`, the inhibitory constant (Ki) in test [3] is 79.4 µM (active); in [4], 39.8 µM (active); in test [5] it was > 79.4 µM (inactive); in test [6], > 100 µM (inactive); in test [7], 39.8 µM (active); in test [8], 50.1 µM (active). Also, the Ki was 63.1 µM (active) in [9]; 31.6 µM (active) in test [10]; 6.31 µM (active) at Activin receptor type-1; 63.1 µM (active) in [11]; > 63.1 µM (inactive) in test [12]; 25.1 µM (active) at Aurora kinase A. Moreover, the Ki in [13] is > 63.1 µM (inactive); on LIM domain kinase 1, 12.6 µM (active); in test [14], 25.1 µM (active); in test [15], 39.8 µM (active); at Activated CDC42 kinase 1, 79.4 µM (active); in [16], > 79.4 µM (inactive). Also, the Ki is > 100 µM (inactive) in test [17]; 15.8 µM (active) in [18]; 50.1 µM (active) in test [19]; 50.1 µM (active) in [20]; 15.8 µM (active) in test [21]; 50.1 µM (active) on Aurora kinase B. Moreover, the Ki is > 79.4 µM (inactive) in test [22]; 39.8 µM (active) in test [23]; 20 µM (active) in test [24]; 15.8 µM (active) in test [25]; 39.8 µM (active) in test [26]; > 79.4 µM (inactive) in [27]. For the same compound, the inhibitory constant (Ki) is 12.6 µM (active) in test [28]; 31.6 µM (active) in test [29]; 5.01 µM (active) in test [30]; 50.1 µM (active) in test [31]; > 63.1 µM (inactive) in test [32]; 6.31 µM (active) in [33]. For the same compound, the values for the Ki in test [34], in test [35] and in [36] were 39.8 µM (active), 63.1 µM (active) and 15.8 µM (active), respectively.

As for `O=C(c1ccc(CNc2c(N3CCCC3)c(=O)c2=O)cc1)N1CC=C(c2ccccc2)CC1`, the cytotoxic concentration (CC50) was 75.8 µM (active) in [37] and > 100 µM (inconclusive) in test [38].

`COc1ccc(Oc2c(Cl)cnn(Cc3ccc(C(=O)c4ccccc4)cc3)c2=O)cc1`: the concentration for half-maximal inhibition (IC50) in [39] was 5.25 µM (active); in test [40], 2.46 µM (active).

Consider `O=C(Nc1ccccc1C(=O)N1CCCC1)c1ccc(Cl)c([N+](=O)[O-])c1`, for which the concentration giving a half-maximal response (EC50) with HEK293 is on record as 28 µM (not active); in test [41], 27.9 µM (not active); in [42], 18.6 µM (not active). Further, the figures for the IC50 (at Melanocortin receptor 4; in test [43]) were 20.6 µM (inactive) and > 64.6 µM (inactive), respectively.

Broadly, the IC50 is the concentration needed to halve the response being measured. The Ki is the equilibrium dissociation constant of an inhibitor or competing ligand from its target. What is called CC50 is the concentration giving 50% cytotoxicity. Broadly, the EC50 is the concentration that produces a half-maximal response.
